Measured values as given in ChEMBL document CHEMBL1777687, “Structure stability/activity relationships of sulfone stabilized N,N-dichloroamines” (Bioorg Med Chem Lett, 2011).
Converted amounts (≈) assume the structure as drawn.

Tests used:
Escherichia coli = assay: Bactericidal activity against Escherichia coli ATCC 25922 after 1 hr by CLSI M26-A method; format: functional; details: ATCC 25922, 1 h
Staphylococcus aureus = assay: Bactericidal activity against Staphylococcus aureus ATCC 29213 after 1 hr by CLSI M26-A method; format: functional; details: ATCC 29213, 1 h
Candida albicans = assay: Fungicidal activity against Candida albicans ATCC 10231 after 1 hr by CLSI M26-A method; format: functional; details: ATCC 10231, 1 h
[1] = Chemical stability of the compound assessed as half life in acetate buffer at pH 4; format: physicochemical
[2] = Chemical stability of the compound assessed as half life in 0.6% borate buffer at pH 7; format: physicochemical
[3] = Chemical stability of the compound assessed as half life in phosphate buffer at pH 7; format: physicochemical

SMILES | half-life [1] [days] | half-life [2] [days] | half-life [3] [days] | MBC (Escherichia coli) [µg/mL] | MBC (Staphylococcus aureus) [µg/mL] | MFC (Candida albicans) [µg/mL]
CC(C)(CS(=O)(=O)CCS(=O)(=O)O)N(Cl)Cl | > 93 |  | 1 | 4 (≈ 12.7 µM) | 8 (≈ 25.5 µM) | 64 (≈ 204 µM)
CC(C)(CS(=O)(=O)[O-])N(Cl)Cl.[Na+] | > 730 |  | > 300 | 2 | 2 | 32
CC(C)(CC[N+](C)(C)C)N(Cl)Cl.[Cl-] | > 281 |  | > 210 | 2 | 2 | 64
CC(C)(CCCS(=O)(=O)CCS(=O)(=O)O)N(Cl)Cl | 45 | 45 |  | 8 (≈ 23.4 µM) | 2 (≈ 5.84 µM) | 128 (≈ 374 µM)
CC(C)(C[N+](C)(C)C)N(Cl)Cl.[Cl-] | > 325 |  | > 396 | 16 | 8 | 128
CC(C)(CCS(=O)(=O)CCCS(=O)(=O)O)N(Cl)Cl | > 112 |  | 85 | 2 (≈ 5.84 µM) | 2 (≈ 5.84 µM) | 1020 (≈ 2990 µM)
CC(C)(CCS(=O)(=O)CCS(=O)(=O)CCS(=O)(=O)O)N(Cl)Cl | > 73 | 14 |  | 2 (≈ 4.76 µM) | 4 (≈ 9.52 µM) | 32 (≈ 76.1 µM)
CC(C)(CCS(=O)(=O)CCS(=O)(=O)O)N(Cl)Cl | > 342 |  | > 342 | 8 (≈ 24.4 µM) | 2 (≈ 6.09 µM) | 16 (≈ 48.7 µM)

Second part, led by results:

half-life [1] [days] | half-life [2] [days] | half-life [3] [days] | SMILES | MBC (Escherichia coli) [µg/mL] | MBC (Staphylococcus aureus) [µg/mL] | MFC (Candida albicans) [µg/mL]
182 | 70 |  | CC(C)(CCS(=O)(=O)CCCCCCCCS(=O)(=O)O)N(Cl)Cl | 2 (≈ 4.85 µM) | 4 (≈ 9.7 µM) | 8 (≈ 19.4 µM)
> 160 | 70 |  | CC(C)(CCS(=O)(=O)CCC[N+](C)(C)C)N(Cl)Cl.[Cl-] | 8 | 2 | 32
6 |  |  | CC(C)(CCS(=O)(=O)CC[N+](C)(C)C)N(Cl)Cl.[Cl-] | 8 | 2 | 32
80 |  | 56 | CC(C)(CCC[N+](C)(C)C)N(Cl)Cl.[Cl-] | 8 | 2 | 256
127 |  | 74 | CC(C)(CCS(=O)(=O)CCCCCCCC[N+](C)(C)C)N(Cl)Cl.[Cl-] | 8 | 8 | 32
